# Values of other authors as cited in patent publication US20100204282A1, “Reverse indoles as 5-lipoxygenase-activating protein (FLAP) inhibitors” (priority 2007, published 2010).
# Key:
# [1] = for efficacy in asthma: in vivo
# [2] = tested on: porcine carotid injury model
# [3] = tested on: rat photochemical model of endothelial injury
# [4] = tested on: mouse model of renal ischemia
SMILES,efficacy in asthma [1],also measured
"O=C(O)[C@@H](c1ccc(OCc2ccc3ccccc3n2)cc1)C1CCCC1 [BAY X1005, (R)-2-[4-(quinolin-2-yl-methoxy)phenyl]-2-cyclopentyl acetic acid]",have efficacy in asthma,
"CC(C)(C)Sc1c(CC(C)(C)C(=O)O)n(Cc2ccc(Cl)cc2)c2ccc(OCc3ccc4ccccc4n3)cc12 [MK-0591, 2-((5-((quinolin-2-yl)methoxy)-1-(4-chlorobenzyl)-3-(tert-butylthio)-1H-indol-2-yl)methyl)-2-methylpropanoic acid]",have efficacy in asthma,
"CC(C)c1ccc2c(c1)c(SC(C)(C)C)c(CC(C)(C)C(=O)O)n2Cc1ccc(Cl)cc1 [MK-886, 2-((1-(4-chlorobenzyl)-3-(tert-butylthio)-5-isopropyl-1H-indol-2-yl)methyl)-2-methylpropanoic acid]",have efficacy in asthma,postangioplasty vasoconstrictive response [2]: decreases the postangioplasty vasoconstrictive response; femoral artery intimal hyperplasia [3]: suppresses femoral artery intimal hyperplasia
"CC(C)(O)c1ccccc1CCC(SCC1(CC(=O)O)CC1)c1cccc(C=Cc2ccc3ccc(Cl)cc3n2)c1 (stereo not drawn) [montelukast, [1-[[1-[3-[2-[(7-chloro-2-quinolyl)]vinyl]phenyl]-3-[2-(1-hydroxy-1-methyl-ethyl)phenyl]-propyl]sulfanylmethyl]cyclopropyl]acetic acid]",,efficacy in asthma and allergic rhinitis ([1]; CysLT1 receptor antagonist): efficacious in asthma and allergic rhinitis
COc1cc(C(=O)NS(=O)(=O)c2ccccc2C)ccc1Cc1cn(C)c2ccc(NC(=O)OC3CCCC3)cc12 [zafirlukast],efficacious in asthma,
CC(c1cc2ccccc2s1)N(O)C(N)=O (stereo not drawn) [zileuton],has efficacy in asthma,renal ischemia [4]: reduce renal ischemia
